ChEMBL document CHEMBL1157539, “Thousands of chemical starting points for antimalarial lead identification” (Nature, 2010)

test system: Plasmodium falciparum; assay: GSK_TCMDC: Inhibition of Plasmodium falciparum 3D7 in whole erythrocytes, using parasite LDH activity as an index of growth.; assay type: functional, organism-based; conditions: Plasmodium falciparum, 3D7

| Structure (SMILES) | XC50 |
| --- | --- |
| COc1ccc(NC(=O)Nc2ccc(-c3ccccc3)cc2Cl)cc1N1CCN(C)CC1 | 875 nM |
| Cc1cccc(CN2CCCC3(CCN(Cc4ccccc4O)C3)C2)c1 (configuration not stated) | 801 nM |
| CCOC(=O)c1c(CN(CC)CC)n(-c2ccccc2)c2cc(Br)c(O)cc12 | 998 nM |
| Cc1cccc2nc(-c3ccc(-c4cccc(CN5CCN(CC6CCCN(C)C6)CC5)c4)s3)[nH]c12 (configuration not stated) | 121 nM |
| CC(C)(C)c1ccc(C(=O)N2CCC3(CC2)C(=O)N(CC(=O)NCC2CCCO2)CN3c2ccccc2)cc1 (configuration not stated) | 231 nM |
| CCc1c(C)c(C#N)c2nc3ccccc3n2c1NCc1ccco1 | 698 nM |
| CC(C)CNCc1cccc(-c2ccc(CNC3CCN(Cc4ccccc4)CC3)cc2)c1 | 271 nM |
| CCOc1cc[nH]c(=O)n1 | 458 nM |
| O=S(=O)(Nc1ccc2nccc(N3CCNCC3)c2c1)c1ccc(-c2ccccc2)cc1 | 977 nM |
| Cc1cc(N(C)C)nc(Nc2ccc(NC(=O)c3ccc(F)cc3)cc2)n1 | 709 nM |
| CN(CCCNC(=S)NC12CC3CC(CC(C3)C1)C2)CCCNc1ccnc2cc(Cl)ccc12 | 121 nM |
| CCOc1ccccc1CON1C(N)=NC(N)=NC1(C)C | 3.71 nM |
| c1cncc(CCNCc2ccc(-c3cccc(-c4nc5ccccc5[nH]4)c3)cc2)c1 | 164 nM |
| Cc1ccc2nc(C)cc(N/N=C/c3ccccc3[N+](=O)[O-])c2c1 | 166 nM |
| Cc1cc(C2CCN(CCCCNC(=O)c3ccc(-c4ccc(C#N)cc4)cc3)CC2)c(C)cc1OCCO | 808 nM |
| COc1cc2nc(N3CCC(NC(=O)c4cccc(N(C)C)c4)CC3)nc(N)c2cc1OC | 614 nM |
| Cc1ccc(NC(=O)c2ccc3ncccc3c2)cc1OC1CCN(Cc2ccc(F)cc2)C1 (configuration not stated) | 1360 nM |
| Cc1cc(O)c(C(C)C)cc1C1(c2cc(C(C)C)c(O)cc2C)OC(=O)c2ccccc21 | 871 nM |
| O=C(Nc1ccccc1F)NC1CCN(c2ccnc(Nc3ccc(F)cc3)n2)C1 (configuration not stated) | 854 nM |
| O=C(/C=C/c1ccc(Cl)c(Cl)c1)NCCCCN1CCCN(C(=O)Nc2cc(Cl)cc(Cl)c2)CC1 | 949 nM |
| N=C1c2ccccc2CN1CC(=O)c1ccc(Cl)c(Cl)c1 | 728 nM |
| Cc1ccc(O)c(C(=O)c2cc(C(=O)Nc3ccccc3C)c(=O)n(-c3ccccc3C)c2)c1 | 784 nM |
| CN(C)CCCN1CCN(C(=O)c2cccc(-c3noc(C(F)(F)F)n3)c2)CC1 | 353 nM |
| c1ccc(-c2n[nH]cc2Nc2ccnc3ccccc23)nc1 | 819 nM |

| Structure (SMILES) | XC50 |
| --- | --- |
| CCn1c2ccccc2c2cc(C=NN=c3cc(C)[nH]c4ccccc34)ccc21 | 309 nM |
| O=C(O)/C=C/c1cccc(F)c1F | 96.1 nM |
| CCCCc1ccc(-c2nc(NC(=O)Nc3[nH]c(-c4ccccc4)nc3C(=O)OCC)c(C(=O)OCC)[nH]2)cc1 | 752 nM |
| Cc1cccc2nc(-c3ccc(-c4cccc(CNCCN5CCNCC5)c4)cc3)[nH]c12 | 1230 nM |
| O=C(CSc1nc(-c2ccccc2Cl)ns1)Nc1ccc2c(c1)OCO2 | 988 nM |
| CC(C)CNC(=O)c1ccnc(-c2ccc(CNCCCc3ccccc3)cc2)c1 | 728 nM |
| COc1ccc(NC(=O)[C@H](Cc2ccccc2)Nc2cc(C)nc(NCCc3ccccn3)n2)cc1 | 834 nM |
| CC[C@H]1CN2CC[C@@H]1C[C@@H]2[C@@H](O)c1cc(-c2ccc(F)cc2)nc2ccc(OC)cc12 | 114 nM |
| COc1cc(C(=O)Nc2nc3ccccc3[nH]2)ccc1OCC(=O)Nc1cccc(C(F)(F)F)c1 | 738 nM |
| O=C(/C=C/c1ccc(Cl)c(Cl)c1)NCCCCCN1CCCN(C(=O)Nc2ccc(F)c(Cl)c2)CC1 | 799 nM |
| COc1cccc(CCNCc2ccc(-c3cccc(CNC4CCCC4)c3)cc2)c1 | 734 nM |
| COc1ccc(F)cc1-c1ccccc1CNC(=O)c1cnn(-c2ccc([N+](=O)[O-])cc2)c1C(F)(F)F | 596 nM |
| O=S(=O)(NCCN1CCCC1)c1cccc(-c2ccc(CNCc3ccc(F)cc3)cc2)c1 | 234 nM |
| O=C(c1cccc(-c2ccc(-c3nc4cc(C(F)(F)F)ccc4[nH]3)cc2)c1)N1CCCCC1CN1CCC(O)C1 (configuration not stated) | 465 nM |
| CCCN(CCC)C(C)CCC(C)Nc1c2ccc(Cl)cc2nc2ccc(OC)cc12 (configuration not stated) | 70.8 nM |
| ON=C1CCc2cc(-c3[nH]c(-c4cccc(OCCNCc5ccc(F)cc5)c4)nc3-c3ccncc3)ccc21 | 890 nM |
| O=C(Nc1ccc([N+](=O)[O-])cc1Br)c1cc2ccccc2nc1Cl | 185 nM |
| COc1ccc2nccc([C@@H](O)CN3CCC(NCc4cc5cccc6c5n(c4=O)CCC6)CC3)c2c1 | 861 nM |
| COc1ccc2nc(N)nc(C)c2c1 | 927 nM |
| COc1ccc(S(=O)(=O)Nc2ccc(C(=O)NCc3ccccc3C(F)(F)F)cc2)cc1N1CCN(CC2CC2)CC1 | 1150 nM |
| CCOCCCNc1nc2cc(OC)c(OC)cc2c2nc(-c3ccccc3)nn12 | 209 nM |
| COc1ccc2nccc([C@@H](O)CN3CCC(NCc4cc5cc(C)ccc5s4)CC3)c2c1 | 636 nM |
| Cc1cccc2nc(-c3cccc(-c4cccc(NC(=O)C5CC(=O)Nc6ccccc65)c4)c3)[nH]c12 (configuration not stated) | 64.6 nM |
| O=C(Nc1ccccc1)OCCOc1ccc(CC2SC(=O)NC2=O)cc1 (configuration not stated) | 371 nM |

| Structure (SMILES) | XC50 |
| --- | --- |
| O=c1cc(NCCCNC2CCOc3c(Cl)cccc32)[nH]c2ccccc12 (configuration not stated) | 832 nM |
| c1cncc(NCc2ccc(-c3cc4ccncc4cc3OC3CCNCC3)s2)c1 | 981 nM |
| CN(CCO)Cc1ccc(-c2ccc(NS(=O)(=O)c3cccc4cccnc34)cc2)cc1 | 795 nM |
| COc1cc(C=CC(=O)N2CCC3(CC2)CC(=O)c2ccccc2O3)cc(OC)c1OC | 761 nM |
| Oc1ccc(CC2CCCN(c3nc(NCCCOc4ccccc4-c4ccccc4)nc(N4CCNCC4)n3)C2)cc1 (configuration not stated) | 916 nM |
| COc1ccc(NS(=O)(=O)c2ccc(C(=O)Nc3ccc(C(F)(F)F)cc3)cc2)cc1N1CCN(CC2CC2)CC1 | 832 nM |
| COc1ccc(N2CCN(CCCOc3ccc(NC(=O)c4cc(Cl)cc(Cl)c4)cc3)CC2)c(OC)c1 | 897 nM |
| c1ccc(Oc2ccc(Nc3ccnc4cc(-c5cccc(CNCCN6CCOCC6)c5)ccc34)cc2)cc1 | 391 nM |
| CCOC(=O)CCCOc1c(OC)cc(Cc2cnc(N)nc2N)cc1OC | 778 nM |
| COc1ccccc1C1CCN(CCCCNC(=O)c2ccc(NC(=O)c3ccc(Cl)cc3)cc2)CC1 | 244 nM |
| N=C(N)NN=CC(=O)Nc1ccc(Cl)cc1 | 814 nM |
| COc1cc(COc2c(C)nc(N)nc2N)cc(OC)c1OC | 332 nM |
| COc1ccc(Cc2nc(/N=C(\N)Nc3ccccc3)ccc2OC)cc1 | 852 nM |
| COc1cc(OC)c(OC)cc1CN1CCC2(CC1)CN(Cc1ccc(Cl)c(Cl)c1)C(=O)O2 | 815 nM |
| Nc1ncc(-c2ccc(S(=O)(=O)Nc3ccc(C(=O)N[C@@H](CCC(=O)O)C(=O)O)cc3)cc2)c(=O)[nH]1 | 803 nM |
| COc1cc(NCCCCCNc2cc(Cl)nc3ccccc23)nc2ccccc12 | 783 nM |
| COc1ccc(CN(C)CCCc2ccc(NC(=O)c3cccc4c(O)c5ccccc5nc34)cc2)cc1OC | 1370 nM |
| CCc1cc(C(=O)c2cccc(C)c2)c(NC(=O)CN2CCN(C(=O)c3ccco3)CC2)s1 | 451 nM |
| Cc1cc(-c2ccc(CNCc3ccc(F)cc3)cc2)ccc1S(=O)(=O)NCCN1CCCC1 | 719 nM |
| Nc1cc(-c2cc3c(OCc4ccccc4)cccc3[nH]2)ccn1 | 1190 nM |
| Cc1ccc(-c2noc(COc3ccccc3C(=O)NC3CCCC3)n2)cc1 | 882 nM |
| CCCC(C)c1cnc2nc(N)nc(N)c2c1C (configuration not stated) | 28.4 nM |
| CC(C)[C@H](NC(=O)c1ccc(O)c(-c2ccc(Cl)c(Cl)c2)c1)C(=O)NCCN1CCOCC1 | 911 nM |
| Clc1ccc(Nc2nc(-c3ccccn3)cs2)nc1 | 774 nM |
